# Reference: ChEMBL document CHEMBL3745628, “ent-Abietane-type diterpenoids from the roots of Euphorbia ebracteolata with their inhibitory activities on LPS-induced NO production in RAW 264.7 macrophages” (Bioorg Med Chem Lett, 2016)
# How the values were obtained:
# RAW264.7 [1] = assay: Antiinflammatory activity in mouse RAW264.7 cells assessed as inhibition of LPS-induced NO production after 24 hrs by Griess method; type: functional, cell-based; details: RAW264.7, 24 h
# RAW264.7 [2] = assay: Cytotoxicity against mouse RAW264.7 cells assessed as reduction in cell viability at IC50 by MTT assay; type: cell-based
Structure (SMILES),IC50 (RAW264.7 [1]) [µM],Activity (RAW264.7 [2])
CC1=C2C(=O)C3=C([C@@H](O)[C@H]2OC1=O)[C@]1(C)CCCC(C)(C)[C@H]1CC3,0.69,Non-toxic
CC1=C2[C@@H](O)[C@@]3(O)CC[C@@H]4C(C)(C)CCC[C@@]4(C)[C@@H]3[C@@H](O)[C@H]2OC1=O,4.44,Non-toxic
CC1=C2[C@@H](O)C3=C([C@@H](O)[C@H]2OC1=O)[C@]1(C)CCCC(C)(C)[C@H]1CC3,33.1,Non-toxic
CC1=C2[C@H]3O[C@]34CC[C@@H]3C(C)(C)CCC[C@@]3(C)[C@@H]4[C@@H](O)[C@H]2OC1=O,6.98,Non-toxic
CO[C@@]12OC(=O)C(C)=C1C=C1CC[C@@H]3C(C)(C)CCC[C@@]3(C)[C@@H]1[C@H]2O,1.97,Non-toxic
CC1=C2C(=C[C@H]3[C@]4(C)CCCC(C)(C)[C@H]4CC[C@]34O[C@H]24)OC1=O,25,Non-toxic
CC1=C2[C@@H](O)C3=CC[C@@H]4C(C)(C)CCC[C@@]4(C)[C@@H]3[C@@H](O)[C@H]2OC1=O,14.2,Non-toxic
CC1=C2C=C3CC[C@@H]4C(C)(C)CCC[C@@]4(C)[C@@H]3[C@@H](O)[C@H]2OC1=O,5.94,Non-toxic
CC1=C2[C@H](OC1=O)[C@H](O)[C@H]1[C@]3(C)CCCC(C)(C)[C@H]3CC[C@@]1(O)[C@H]2O,15.5,Non-toxic
